Measurements from ChEMBL document CHEMBL1201862, “PubChem BioAssay data set” (2004).
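Tested at 5 concentrations; 48 h exposure; 96-well plates; endpoints linearly interpolated, else capped at highest concentration. GI50: concentration for 50% inhibition of growth.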 Active and inactive are the calls of the source. No stated cut-off is given here; in the data, active = GI50 up to about 1.1 µM and inactive = higher.

Assays:
Assay in all cases: NCI tumour cell line growth inhibition, 48 h
[1] = system: HL-60
[2] = system: M19-MEL
[3] = system: SF-268
[4] = system: NCI-H522
[5] = system: ACHN
[6] = system: HOP-92
[7] = system: TK-10
[8] = system: M14
[9] = system: SNB-75
[10] = system: RPMI-8226
[11] = system: SF-295
[12] = system: EKVX
[13] = system: HT-29
[14] = system: IGROV-1
[15] = system: SK-OV-3
[16] = system: K562
[17] = system: SW-620
[18] = system: T47D
[19] = system: DU-145
[20] = system: MCF7

Compound	GI50 [1]	GI50 [2]	GI50 [3]	GI50 [4]	GI50 [5]	GI50 [6]	GI50 [7]	GI50 [8]	GI50 [9]	GI50 [10]	GI50 [11]	GI50 [12]	GI50 [13]	GI50 [14]	GI50 [15]	GI50 [16]	GI50 [17]	GI50 [18]	GI50 [19]	GI50 [20]
COc1ccc(/C(=N/NC(=O)NN)C(c2ccc(OC)cc2)C2(O)CNc3c(Cl)cc(Cl)cc32)cc1 (configuration not stated)	> 100 µM (inactive)	> 100 µM (inactive)	> 100 µM (inactive)	> 100 µM (inactive)	> 100 µM (inactive)	37.7 µM (inactive)	> 100 µM (inactive)	> 100 µM (inactive)	> 100 µM (inactive)	60.8 µM (inactive)	> 100 µM (inactive)	> 100 µM (inactive)	89.9 µM (inactive)	> 100 µM (inactive)	81.8 µM (inactive)	> 100 µM (inactive)	> 100 µM (inactive)	–	–	–
O=[N+]([O-])C1(CO)COC2(OC1)c1ccccc1-c1ccccc12	21.9 µM (inactive)	> 100 µM (inactive)	52.8 µM (inactive)	20 µM (inactive)	> 81.3 µM (inactive)	> 71.1 µM (inactive)	> 100 µM (inactive)	54.7 µM (inactive)	> 100 µM (inactive)	23.8 µM (inactive)	> 100 µM (inactive)	> 100 µM (inactive)	> 63.5 µM (inactive)	> 89.1 µM (inactive)	> 100 µM (inactive)	64.7 µM (inactive)	21.6 µM (inactive)	28.7 µM (inactive)	39.4 µM (inactive)	48 µM (inactive)
COc1cc2c(cc1OC)[C@H]1CN3CCC[C@H]3C=C1c1ccc(OC)c(O)c1-2	0.000487 µM (active)	< 0.0001 µM (active)	0.000819 µM (active)	0.000487 µM (active)	0.000566 µM (active)	< 0.0001 µM (active)	0.000998 µM (active)	0.00048 µM (active)	0.000566 µM (active)	0.000577 µM (active)	< 0.0001 µM (active)	0.000883 µM (active)	0.000656 µM (active)	0.000661 µM (active)	< 0.0001 µM (active)	0.000512 µM (active)	0.000499 µM (active)	0.00337 µM (active)	0.00342 µM (active)	0.00404 µM (active)
CSc1nc(NC2OCC(OC(C)=O)C(OC(C)=O)C2OC(C)=O)c(/N=C\C=N\c2c(NC3OCC(OC(C)=O)C(OC(C)=O)C3OC(C)=O)nc(SC)n(C)c2=O)c(=O)n1C (configuration not stated)	> 100 µM (inactive)	> 100 µM (inactive)	> 100 µM (inactive)	> 100 µM (inactive)	> 100 µM (inactive)	> 100 µM (inactive)	> 100 µM (inactive)	> 100 µM (inactive)	> 100 µM (inactive)	> 100 µM (inactive)	> 100 µM (inactive)	> 100 µM (inactive)	> 100 µM (inactive)	> 100 µM (inactive)	> 100 µM (inactive)	> 100 µM (inactive)	> 100 µM (inactive)	–	–	–
CN1S(=O)(=O)N(C)P12(N=P(CP(=NP13(N(C)S(=O)(=O)N1C)N(C)S(=O)(=O)N3C)(c1ccccc1)c1ccccc1)(c1ccccc1)c1ccccc1)N(C)S(=O)(=O)N2C	> 100 µM (inactive)	> 100 µM (inactive)	> 100 µM (inactive)	> 100 µM (inactive)	> 100 µM (inactive)	> 100 µM (inactive)	> 100 µM (inactive)	> 100 µM (inactive)	> 100 µM (inactive)	> 100 µM (inactive)	–	> 100 µM (inactive)	> 100 µM (inactive)	> 100 µM (inactive)	> 100 µM (inactive)	> 100 µM (inactive)	> 100 µM (inactive)	–	–	–
CCCCCCCC(=O)OC(CBr)COC(=O)C(C)(C)C (configuration not stated)	38 µM (inactive)	> 84.1 µM (inactive)	> 100 µM (inactive)	> 100 µM (inactive)	> 100 µM (inactive)	> 95.5 µM (inactive)	> 100 µM (inactive)	> 100 µM (inactive)	12.1 µM (inactive)	21.6 µM (inactive)	> 100 µM (inactive)	> 100 µM (inactive)	> 88.5 µM (inactive)	> 100 µM (inactive)	> 100 µM (inactive)	32.5 µM (inactive)	> 100 µM (inactive)	–	–	–
O=C1C=C(Br)C(=O)C(Br)=C1	20.3 µM (inactive)	> 53.5 µM (inactive)	> 100 µM (inactive)	67.5 µM (inactive)	> 85.5 µM (inactive)	> 100 µM (inactive)	> 100 µM (inactive)	> 100 µM (inactive)	> 100 µM (inactive)	37.6 µM (inactive)	> 100 µM (inactive)	> 100 µM (inactive)	> 100 µM (inactive)	> 100 µM (inactive)	> 100 µM (inactive)	33.3 µM (inactive)	59.7 µM (inactive)	–	–	–
COc1ccc(/C=C/C(=O)c2sc(Nc3ccc([N+](=O)[O-])cc3)nc2C)cc1	21.2 µM (inactive)	53.1 µM (inactive)	34.8 µM (inactive)	18.2 µM (inactive)	38.6 µM (inactive)	20.8 µM (inactive)	45.2 µM (inactive)	–	43.5 µM (inactive)	19.3 µM (inactive)	23.3 µM (inactive)	43.9 µM (inactive)	–	66.5 µM (inactive)	> 100 µM (inactive)	22.1 µM (inactive)	42.3 µM (inactive)	–	–	–
COc1ccc(/C=C2\CCC(CN(C)C)C2=O)cc1OC (configuration not stated)	2.07 µM (inactive)	7 µM (inactive)	10.7 µM (inactive)	1.95 µM (inactive)	7 µM (inactive)	5.69 µM (inactive)	7.14 µM (inactive)	6.87 µM (inactive)	8.49 µM (inactive)	1.28 µM (inactive)	15.1 µM (inactive)	16.1 µM (inactive)	5.61 µM (inactive)	13.1 µM (inactive)	19.1 µM (inactive)	1.17 µM (inactive)	1.82 µM (inactive)	5.41 µM (inactive)	8.24 µM (inactive)	2.56 µM (inactive)
Cc1ccc(C(=O)O/N=C2/CCC/C2=C\c2ccccc2)cc1	> 100 µM (inactive)	> 100 µM (inactive)	29.1 µM (inactive)	> 100 µM (inactive)	> 100 µM (inactive)	> 100 µM (inactive)	> 100 µM (inactive)	> 100 µM (inactive)	69.3 µM (inactive)	> 100 µM (inactive)	> 100 µM (inactive)	> 100 µM (inactive)	> 100 µM (inactive)	> 100 µM (inactive)	> 100 µM (inactive)	> 100 µM (inactive)	> 100 µM (inactive)	–	–	–
COc1cc2c(cc1C1=NC(C)(C)CO1)OCO2	> 100 µM (inactive)	> 100 µM (inactive)	> 100 µM (inactive)	> 100 µM (inactive)	> 100 µM (inactive)	> 100 µM (inactive)	> 100 µM (inactive)	> 100 µM (inactive)	> 100 µM (inactive)	> 100 µM (inactive)	> 100 µM (inactive)	> 100 µM (inactive)	> 100 µM (inactive)	> 100 µM (inactive)	> 100 µM (inactive)	> 100 µM (inactive)	> 100 µM (inactive)	–	–	–
CN1c2c(O)nc(N)nc2NCC1CCNc1ccc(C(=O)NC(CCC(=O)O)C(=O)O)cc1 (configuration not stated)	48.1 µM (inactive)	222 µM (inactive)	1110 µM (inactive)	423 µM (inactive)	45.4 µM (inactive)	1490 µM (inactive)	1030 µM (inactive)	10.3 µM (inactive)	553 µM (inactive)	141 µM (inactive)	187 µM (inactive)	1260 µM (inactive)	19.6 µM (inactive)	1030 µM (inactive)	678 µM (inactive)	4.13 µM (inactive)	52.4 µM (inactive)	1860 µM (inactive)	1330 µM (inactive)	324 µM (inactive)
COc1ccc(N2C(=O)C3c4[nH]c5ccccc5c4C4CCCCCCCCCCC4C3C2=O)cc1 (configuration not stated)	18.9 µM (inactive)	25.1 µM (inactive)	5.16 µM (inactive)	18 µM (inactive)	29.4 µM (inactive)	19 µM (inactive)	> 43.8 µM (inactive)	7.8 µM (inactive)	12.7 µM (inactive)	18.7 µM (inactive)	10.7 µM (inactive)	23.4 µM (inactive)	4.42 µM (inactive)	> 28.2 µM (inactive)	28.8 µM (inactive)	19 µM (inactive)	4.58 µM (inactive)	–	–	–
CC(C)(C)OP(=O)(OC(C)(C)C)C(O)c1ccc(/C=C(\C#N)C(N)=O)cc1 (configuration not stated)	38.9 µM (inactive)	> 100 µM (inactive)	> 100 µM (inactive)	> 100 µM (inactive)	> 100 µM (inactive)	> 100 µM (inactive)	> 100 µM (inactive)	> 100 µM (inactive)	> 100 µM (inactive)	> 100 µM (inactive)	> 100 µM (inactive)	> 100 µM (inactive)	> 100 µM (inactive)	> 100 µM (inactive)	> 100 µM (inactive)	> 100 µM (inactive)	> 100 µM (inactive)	–	–	–
